The record followed here is US7388016B2, “Dibenzonaphthyridine derivatives and methods of use thereof” (Wyeth, priority 2005, dated 2008).

The target in the assay is T1, PDK-1 (Homo sapiens, UniProt O15530).
T1 sequence (O15530 1-556): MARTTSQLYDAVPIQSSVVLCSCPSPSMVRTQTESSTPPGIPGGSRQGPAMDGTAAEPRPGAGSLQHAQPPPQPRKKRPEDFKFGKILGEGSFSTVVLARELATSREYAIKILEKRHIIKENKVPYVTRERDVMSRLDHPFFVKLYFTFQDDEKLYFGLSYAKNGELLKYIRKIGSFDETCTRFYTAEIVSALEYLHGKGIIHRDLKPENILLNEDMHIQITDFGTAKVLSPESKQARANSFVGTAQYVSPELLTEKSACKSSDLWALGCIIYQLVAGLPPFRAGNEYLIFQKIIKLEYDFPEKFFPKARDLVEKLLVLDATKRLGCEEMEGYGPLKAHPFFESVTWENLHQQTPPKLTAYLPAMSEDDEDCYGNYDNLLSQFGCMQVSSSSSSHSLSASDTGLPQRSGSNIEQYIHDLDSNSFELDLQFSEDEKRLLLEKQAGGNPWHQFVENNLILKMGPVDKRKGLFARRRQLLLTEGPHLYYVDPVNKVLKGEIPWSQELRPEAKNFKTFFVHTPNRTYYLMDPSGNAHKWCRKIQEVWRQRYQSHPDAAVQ
The assay is described as follows: In vitro PDK-1 inhibition ELISA assay (phosphorylation of SGK1 on Threonine 256). Format: biochemical. Conditions: PDK-1 phosphorylates 6xHIS tagged SGK1, 17 minutes reaction, chemiluminescent detection. On the procedure: The ability of illustrative Dibenzonaphthyridine Derivatives to inhibit PDK-1 in vitro can be determined using the ELISA assay as decribed in Kobayashi et al., Biochem. J. 339:319-328 (1999) and Park et al., EMBO J. 18:3024-3033 (1999).
In this in vitro assay, PDK-1 kinase phosphorylates SGK1 on Threonine 256. After 17 minutes, the reaction is quenched via the addition of urea. The 6×HIS tagged SGK1 is then bound to 96 well Ni-NTA HisSorb plates and the phosphorylated SGK1 is detected using rabbit derived anti-phospho SGK antibody as the primary antibody and HRP coupled anti-rabbit antibody as the secondary antibody. HRP is then detected using a Chemiluminescent Substrate.
Background: An ELISA detects its analyte on a solid surface through an enzyme-linked reagent.

For the molecule `COc1cc2c(cc1OCCC1CCCN1C)ncc1c(N)nc3c(C)c(N)ccc3c12` (stereo not shown) [Ib-25, 11-methoxy-4-methyl-10-[2-(1-methylpyrrolidin-2-yl)ethoxy]dibenzo[c,f]-2,7-naphthyridine-3,6-diamine], 288 nM corresponded to half-maximal inhibition (IC50).

`CCOc1cc2ncc3c(N)nc4c(C)c(N)ccc4c3c2cc1OCC` [Ib-3, 10,11-diethoxy-4-methyldibenzo[c,f]-2,7-naphthyridine-3,6-diamine] gave an IC50 of 273 nM.

With `COc1cc2c(cc1N(C)CCN(C)C)ncc1c(N)nc3c(C)c(N)ccc3c12` [Ib-6, N^10-[2-(dimethylamino)ethyl]-11-methoxy-N^10,4-dimethyldibenzo[c,f]-2,7-naphthyridine-3,6,10-triamine], the 50% inhibitory concentration (IC50) amounted to 1170 nM.

Molecule `COc1cc2ncc3c(N)nc4ccccc4c3c2cc1OC` [Ib-1, 10,11-dimethoxydibenzo[c,f]-2,7-naphthyridin-6-amine] yielded an IC50 of 2400 nM.

Take `COc1cc2c(cc1NCCN1CCOCC1)ncc1c(N)nc3c(C)c(N)ccc3c12` [Ib-9, 11-methoxy-4-methyl-N^10-(2-morpholin-4-ylethyl)dibenzo[c,f]-2,7-naphthyridine-3,6,10-triamine]: the IC50 turned out to be 296 nM.

For `COCCOc1cc2ncc3c(N)nc4c(C)c(N)ccc4c3c2cc1OCCOC` [Ib-17, 10,11-bis(2-methoxyethoxy)-4-methyldibenzo[c,f]-2,7-naphthyridine-3,6-diamine], the IC50 came to 275 nM.

For the molecule `COc1cc2c(cc1OCCc1c[nH]c3ccccc13)ncc1c(N)nc3c(C)c(N)ccc3c12` [Ib-31, 10-[2-(1H-indol-3-yl)ethoxy]-11-methoxy-4-methyldibenzo[c,f]-2,7-naphthyridine-3,6-diamine], the half-maximal inhibitory concentration (IC50) is 539 nM.

Molecule `COc1cc2ncc3c(N)nc4cc(N)ccc4c3c2cc1OC` [Ib-38, 10,11-dimethoxydibenzo[c,f]-2,7-naphthyridine-3,6-diamine] had a half-maximal inhibitory concentration (IC50) of 670 nM.

On to `COc1cc2ncc3c(OC)nc4c(C)c(OC)ccc4c3c2cc1OC` [Compound I-1, 2,3,7,10-tetramethoxy-9-methyldibenzo[c,f]-2,7-naphthyridine], for which half-maximal inhibition (IC50) required 23800 nM.

As to `COc1cc2c(cc1NCCN1CCCC1)ncc1c(N)nc3c(C)c(N)ccc3c12` [Ib-13, 11-methoxy-4-methyl-N^10-(2-pyrrolidin-1-ylethyl)dibenzo[c,f]-2,7-naphthyridine-3,6,10-triamine], the concentration for half-maximal inhibition (IC50) amounted to 3710 nM.

Consider `COc1cc2c(cc1OCCCN1CCCC1=O)ncc1c(N)nc3c(C)c(N)ccc3c12` [Ib-35, 1-{3-[(7,10-diamino-2-methoxy-9-methyldibenzo[c,f]-2,7-naphthyridin-3-yl)oxy]propyl}pyrrolidin-2-one], for which the half-maximal inhibitory concentration (IC50) came to 111 nM.

With `COc1cc2c(cc1OCCc1ccc(N(C)C)cc1)ncc1c(N)nc3c(C)c(N)ccc3c12` [Ib-32, 10-{2-[4-(dimethylamino)phenyl]ethoxy}-11-methoxy-4-methyldibenzo[c,f]-2,7-naphthyridine-3,6-diamine], the concentration for half-maximal inhibition (IC50) came out at 667 nM.

`COc1cc2c(cc1OCC1CCN(C)CC1)ncc1c(N)nc3c(C)c(N)ccc3c12` [Ib-16, 11-methoxy-4-methyl-10-[(1-methylpiperidin-4-yl)methoxy]dibenzo[c,f]-2,7-naphthyridine-3,6-diamine]: the concentration for half-maximal inhibition (IC50) was 878 nM.

For `COc1cc2c(cc1NCCCN(C)C)ncc1c(N)nc3c(C)c(N)ccc3c12` [Ib-15, N^10-[3-(dimethylamino)propyl]-11-methoxy-4-methyldibenzo[c,f]-2,7-naphthyridine-3,6,10-triamine], the midpoint of inhibition, the IC50, lay at 972 nM.

For the molecule `COc1cc2c(cc1N(C)CCCN(C)C)ncc1c(N)nc3c(C)c(N)ccc3c12` [Ib-5, N^10-[3-(dimethylamino)propyl]-11-methoxy-N^10,4-dimethyldibenzo[c,f]-2,7-naphthyridine-3,6,10-triamine], the midpoint of inhibition, the IC50, lay at 1010 nM.

`CCN(CC)CCOc1cc2ncc3c(N)nc4c(C)c(N)ccc4c3c2cc1OC` [Ib-23, 10-[2-(diethylamino)ethoxy]-11-methoxy-4-methyldibenzo[c,f]-2,7-naphthyridine-3,6-diamine] came in with a half-maximal inhibitory concentration (IC50) of 347 nM.

As for `COc1cc2c(cc1OCCCl)ncc1c(N)nc3c(C)c(N)ccc3c12` [Ib-18, 10-(2-chloroethoxy)-11-methoxy-4-methyldibenzo[c,f]-2,7-naphthyridine-3,6-diamine], the concentration for half-maximal inhibition (IC50) turned out to be 42.5 nM.

On to `COc1cc2c(cc1OCCN1CCCCC1)ncc1c(N)nc3c(C)c(N)ccc3c12` [Ib-26, 11-methoxy-4-methyl-10-(2-piperidin-1-ylethoxy)dibenzo[c,f]-2,7-naphthyridine-3,6-diamine], for which the IC50 is 324 nM.

Molecule `COc1cc2c(cc1OCCN(C)C)ncc1c(N)nc3c(C)c(N)ccc3c12` [Ib-20, 10-[2-(dimethylamino)ethoxy]-11-methoxy-4-methyldibenzo[c,f]-2,7-naphthyridine-3,6-diamine] yielded a concentration for half-maximal inhibition (IC50) of 377 nM.

In general, IC50 refers to the concentration that inhibits the measured activity by half. Lower therefore signals inhibition by little substance.
